Laboratory results: US20240383908A1, “SYNTHESIS AND APPLICATION OF PHOSPHATASE DEGRADER” (HINOVA PHARMACEUTICALS INC., priority 2021, published 2024)

How the values were obtained:
Type in all cases: cell-based
MV-411 cell line = test: Inhibition of cell proliferation, MV-411 (CCK-8); settings: Homo sapiens, MV4-11, 120 h, MV411 cells, 5 days, read-out: Inhibition activity on the proliferation of different cell lines MV411 (IC50)
Procedure: • MV-411 cell line (COBIER, CBP-60522) • FBS (GEMINI, Cat. No. 900-108) • 0.01M PBS (Biosharp, Cat. No. 162262) • IMDM (Hyclone, Cat. No. SH30228.01) • Penicillin-Streptomycin (Gibco, Cat. No. 15140122) • DMSO (Sigma, Cat. No. D5879) • Cell counting kit-8 (Signalway Antibody, Cat. No. CP002) • Centrifuge Tube, 15 ml (Excell Bio, Cat. No. CS015-0001) • Cell Culture Dish, (WHB, Cat. No. CS016-0128) • 96-well cell culture cluster (Corning, Cat. No. 3599)
• (1) Cell culture medium: IMDM medium+10% FBS+1% Pen Strep; • (2) PBS buffer: PBS powder was dissolved in 2 L of ultrapure water and sterilized;
(§1) (1) MV-411 cells were cultured in the cell culture medium, and then well-growing cells were selected and inoculated in a 96-well plate at 80 μL/well, with 2×10^4 cells/well. The plate was incubated overnight in a 5% CO2 cell incubator at 37° C.
(§2) (2) 10 mM storage solution of each drug was prepared using dimethylsulfoxide (DMSO). The stock solution was diluted in a ratio of 1:3 with DMSO before use, and then the solution was serially diluted in a ratio of 1:3, to obtain 9 gradient concentrations. Each concentration was further diluted with the medium in a ratio of 1:200 (to ensure that the DMSO concentration in the culture system was 0.1%). Two wells were set for each concentration. 20 μL of each compound solution was added to the cell culture well (with a final concentration of 10 μM, 3.3 μM, 1.1 μM . . . ). The plate was gently shaken and mixed. Additionally, 3 negative control wells (only containing cells) and 3 blank control wells (only containing the medium) were included (6 wells were each added with 20 μL of DMSO diluted with the medium in a ratio of 1:200).
(§3) (1) After 5 days of cultivation, 10 μL of CCK-8 was added to each well, and then the plate was further cultured for 3 h at 37° C. in a 5% CO2 cell incubator.
(§4) (2) The absorbance (OD value) was measured at 450 nm with a multifunctional microplate reader. (3) The data were analyzed using the Dose-response-inhibition equation in GraphPad Prism8 software to obtain the IC50 value.

MIA Paca-2 = test: Inhibition of cell proliferation, MIA Paca-2 (CCK-8); settings: Homo sapiens, MIA Paca-2 cells, read-out: Inhibition activity on the proliferation of different cell lines MIA Paca-2 (IC50)
Procedure: as §1, §2, §3, §4
Using a similar method, the IC50 value (nM) for the inhibitory activity of the compound according to the present invention against different cell lines was obtained, and the results are shown in Table 3 (++++: IC50>5 μM; +++: 1 μM<IC50<5 μM; ++: IC50<1 μM).

SHP2 protein [1] = molecular target: T1, SHP2 protein (Homo sapiens, UniProt Q06124); test: Degradation activity on SHP2 protein in NCI-H358 cells (Western blot, DC50); design: endogenous in cells; settings: read-out: Degradation activity for differenct cell lines NCI-H358 (DC50)
T1 sequence (Q06124 1-593): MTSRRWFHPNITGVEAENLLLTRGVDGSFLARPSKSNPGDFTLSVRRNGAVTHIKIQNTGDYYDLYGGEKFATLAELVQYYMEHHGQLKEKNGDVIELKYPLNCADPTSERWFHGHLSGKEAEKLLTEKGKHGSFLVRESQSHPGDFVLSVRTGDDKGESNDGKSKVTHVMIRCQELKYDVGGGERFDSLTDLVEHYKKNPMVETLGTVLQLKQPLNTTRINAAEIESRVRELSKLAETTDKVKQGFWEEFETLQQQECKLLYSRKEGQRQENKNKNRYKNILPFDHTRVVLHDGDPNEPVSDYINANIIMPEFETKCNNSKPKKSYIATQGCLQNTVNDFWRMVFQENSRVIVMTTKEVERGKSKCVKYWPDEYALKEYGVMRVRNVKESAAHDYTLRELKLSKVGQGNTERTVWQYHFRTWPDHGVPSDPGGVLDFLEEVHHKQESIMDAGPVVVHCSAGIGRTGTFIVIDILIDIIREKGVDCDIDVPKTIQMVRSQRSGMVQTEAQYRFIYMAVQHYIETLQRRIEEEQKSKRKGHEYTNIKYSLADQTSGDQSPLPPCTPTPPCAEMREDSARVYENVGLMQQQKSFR
In short: (§5)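 Cells were treated 24 h at 37 °C with compound (0.1–100 nM final, 0.1% DMSO). SHP2 was measured by Western blot with GAPDH as loading control, densitometry normalized to DMSO (100%). DC50, the concentration giving 50% degradation, came from a dose-response fit.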

SHP2 protein [2] = molecular target: T1, SHP2 protein; test: Degradation activity on SHP2 protein in MIA Paca-2 cells (Western blot, DC50); design: endogenous in cells; host or cells: MIA Paca-2 cells; settings: read-out: Degradation activity for differenct cell lines MIA Paca-2 (DC50)
In short: as §5

| SMILES | IC50 (MV-411 cell line) [nM] | IC50 (MIA Paca-2) [nM] | DC50 (SHP2 protein [1]) [nM] | DC50 (SHP2 protein [2]) [nM] |
| --- | --- | --- | --- | --- |
| CC1(N)CCN(c2cnc(Sc3cccc(NC(=O)CCCCCCCCN4C5CCC4CN(c4ccc(C(=O)NCc6ccc7c(c6)CN(C6CCC(=O)NC6=O)C7=O)nn4)C5)c3)cn2)CC1 (stereo not drawn) [Compound 119] | < 1000 | 1000 to 5000 | < 100 | < 100 |
| CC1(N)CCN(c2cnc(Sc3cccc(NC(=O)CCCCCCCCN4CCN(c5ccc(C(=O)NCc6ccc7c(c6)CN(C6CCC(=O)NC6=O)C7=O)nn5)CC4C(F)(F)F)c3)cn2)CC1 (stereo not drawn) [Compound 174] | 1000 to 5000 | 1000 to 5000 | < 100 | < 100 |
| Cc1ncsc1-c1ccc([C@H](C)NC(=O)[C@@H]2C[C@@H](O)CN2C(=O)[C@@H](NC(=O)CCCCCCCCN2CCN(C(=O)CCC(=O)Nc3cccc(Sc4ncc(N5CCC(C)(N)CC5)nc4N)c3Cl)CC2)C(C)(C)C)cc1 [Compound 999] | < 1000 | 1000 to 5000 | < 100 | < 100 |

Next, values leading:

| IC50 (MV-411 cell line) [nM] | IC50 (MIA Paca-2) [nM] | DC50 (SHP2 protein [1]) [nM] | DC50 (SHP2 protein [2]) [nM] | SMILES |
| --- | --- | --- | --- | --- |
| < 1000 | 1000 to 5000 | < 100 | < 100 | CC1(N)CCN(c2cnc(Sc3cccc(NC(=O)CCCCCCCCN4CCN(c5ccc(C(=O)NCc6ccc7c(c6)CN(C6CCC(=O)NC6=O)C7=O)nn5)CC4)c3)cn2)CC1 (stereo not drawn) [Compound 63] |
| < 1000 | 1000 to 5000 | 100 to 1000 | < 100 | CCC1(N)CCN(c2cnc(Sc3cccc(NC(=O)CCCCCCN4CC5(CCN(c6ccc(C(=O)NCc7ccc8c(c7)CN(C7CCC(=O)NC7=O)C8=O)nn6)C5)C4)c3)cn2)CC1 (stereo not drawn) [Compound 161] |
| < 1000 | 1000 to 5000 | 100 to 1000 | < 100 | NC1(CO)CCN(c2cnc(Sc3cccc(NC(=O)CCCCCCN4CC5(CCN(c6ccc(C(=O)NCc7ccc8c(c7)CN(C7CCC(=O)NC7=O)C8=O)nn6)C5)C4)c3)cn2)CC1 (stereo not drawn) [Compound 168] |
